Data from ChEMBL document CHEMBL5465560, “Selectivity Literature for EUbOPEN Chemogenomic Library” (2024).
One block for each compound: values may come before it.

Key:
[1] = biological target: Serine/threonine-protein kinase pim-2 (Homo sapiens, UniProt Q9P1W9); conditions: at 10 µM
[2] = biological target: Serine/threonine-protein kinase PAK 4 (Homo sapiens, UniProt O96013); experiment: Selectivity interaction (Kinase panel (DSF assay)) EUB0001559a PAK4
[3] = biological target: Ephrin type-A receptor 5 (Homo sapiens) (UniProt P54756); experiment: Selectivity interaction (KinomeScan (DiscoverX)) EUB0001079a EPHA5; conditions: at 1 µM
[4] = biological target: Serine/threonine-protein kinase MRCK alpha (Homo sapiens) (UniProt Q5VT25); experiment: Selectivity interaction (KinomeScan (DiscoverX)) EUB0000618a CDC42BPA; conditions: at 10 µM
[5] = biological target: Wee1-like protein kinase (Homo sapiens) (UniProt P30291); experiment: Selectivity interaction (KinomeScan (DiscoverX)) EUB0000618a WEE1; conditions: at 10 µM
[6] = biological target: Serine/threonine-protein kinase WNK3 (Homo sapiens) (UniProt Q9BYP7); experiment: Selectivity interaction (KinomeScan (DiscoverX)) EUB0000607a WNK3; conditions: at 10 µM
[7] = system: Mast/stem cell growth factor receptor Kit (Homo sapiens), P10721 [L576P]; experiment: (§1) Selectivity interaction (KinomeScan (DiscoverX)) EUB0000595a KIT; conditions: at 10 µM
[8] = system: Mast/stem cell growth factor receptor Kit (Homo sapiens), P10721 [V559D]; experiment: as §1; conditions: at 10 µM
[9] = system: Mast/stem cell growth factor receptor Kit (Homo sapiens), P10721 [V559D,V654A]; experiment: as §1; conditions: at 10 µM
[10] = system: Mast/stem cell growth factor receptor Kit (Homo sapiens), P10721 [D816V]; experiment: as §1; conditions: at 10 µM
[11] = system: Mast/stem cell growth factor receptor Kit (Homo sapiens), P10721 [V559D,T670I]; experiment: as §1; conditions: at 10 µM
[12] = system: Mast/stem cell growth factor receptor Kit (Homo sapiens), P10721 [D816H]; experiment: as §1; conditions: at 10 µM
[13] = biological target: Calcium/calmodulin-dependent protein kinase type II subunit alpha (Homo sapiens, UniProt Q9UQM7); experiment: Selectivity interaction (Kinase panel (KiNativ target engagement assay in Jurkat cells)) EUB0001635a CAMK2A; assay type: cell-based; conditions: Selectivity number of off-targets 0.0, Selectivity number of targets 233.0, Source Knowledge https://www.sciencedirect.com/science/article/pii/S2451945619300674?via%3Dihub, at 1 µM
[14] = biological target: Cyclin-dependent kinase 7 (Homo sapiens, UniProt P50613); experiment: Selectivity interaction (Kinase panel (KiNativ target engagement assay in Jurkat cells)) EUB0001635a CDK7; assay type: cell-based; conditions: Selectivity number of off-targets 0.0, Selectivity number of targets 233.0, Source Knowledge https://www.sciencedirect.com/science/article/pii/S2451945619300674?via%3Dihub, at 1 µM
[15] = biological target: Platelet-derived growth factor receptor alpha (Homo sapiens, UniProt P16234); conditions: at 10 µM
[16] = biological target: Calcium/calmodulin-dependent protein kinase type 1D (Homo sapiens) (UniProt Q8IU85); experiment: Selectivity interaction (ActivX KiNativ screen (kinase selectivity in THP-1 cell lysates)) EUB0000639a CAMK1D; assay type: subcellular; conditions: lysate, at 5 µM
[17] = biological target: 5'-AMP-activated protein kinase catalytic subunit alpha-1 (Homo sapiens, UniProt Q13131); experiment: Selectivity interaction (ActivX KiNativ screen (kinase selectivity in THP-1 cell lysates)) EUB0000639a PRKAA1; assay type: subcellular; conditions: lysate, at 0.04 µM
[18] = biological target: T1, Ribosomal protein S6 kinase alpha-1 (Homo sapiens, UniProt Q15418); experiment: (§2) Selectivity interaction (ActivX KiNativ screen (kinase selectivity in THP-1 cell lysates)) EUB0000639a RPS6KA1; assay type: subcellular; conditions: lysate, at 5 µM
[19] = biological target: T1, Ribosomal protein S6 kinase alpha-1; experiment: as §2; assay type: subcellular; conditions: lysate, at 0.04 µM
[20] = biological target: T2, Casein kinase I isoform alpha-like (Homo sapiens) (UniProt Q8N752); experiment: Selectivity interaction (KinomeScan (DiscoverX)) EUB0000229b CSNK1A1L; conditions: at 10 µM
T2 sequence (whole entry): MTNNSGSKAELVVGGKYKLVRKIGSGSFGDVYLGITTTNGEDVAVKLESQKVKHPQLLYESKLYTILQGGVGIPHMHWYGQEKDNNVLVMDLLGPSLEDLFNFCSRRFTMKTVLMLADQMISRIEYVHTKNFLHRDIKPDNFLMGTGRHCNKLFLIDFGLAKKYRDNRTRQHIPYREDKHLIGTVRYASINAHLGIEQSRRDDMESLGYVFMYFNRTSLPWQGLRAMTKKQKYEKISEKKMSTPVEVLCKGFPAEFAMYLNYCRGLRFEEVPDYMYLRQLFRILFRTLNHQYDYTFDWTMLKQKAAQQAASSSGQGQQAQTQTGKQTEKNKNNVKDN

[21] = biological target: Calcium/calmodulin-dependent protein kinase type II subunit beta (Homo sapiens) (UniProt Q13554); experiment: Selectivity interaction (ProQinase) EUB0000171b CAMK2B
[22] = biological target: T3, Ephrin type-A receptor 6 (Homo sapiens) (UniProt Q9UF33); experiment: Selectivity interaction (KinomeScan (DiscoverX)) EUB0001049a EPHA6; conditions: at 1 µM
T3 sequence (whole entry): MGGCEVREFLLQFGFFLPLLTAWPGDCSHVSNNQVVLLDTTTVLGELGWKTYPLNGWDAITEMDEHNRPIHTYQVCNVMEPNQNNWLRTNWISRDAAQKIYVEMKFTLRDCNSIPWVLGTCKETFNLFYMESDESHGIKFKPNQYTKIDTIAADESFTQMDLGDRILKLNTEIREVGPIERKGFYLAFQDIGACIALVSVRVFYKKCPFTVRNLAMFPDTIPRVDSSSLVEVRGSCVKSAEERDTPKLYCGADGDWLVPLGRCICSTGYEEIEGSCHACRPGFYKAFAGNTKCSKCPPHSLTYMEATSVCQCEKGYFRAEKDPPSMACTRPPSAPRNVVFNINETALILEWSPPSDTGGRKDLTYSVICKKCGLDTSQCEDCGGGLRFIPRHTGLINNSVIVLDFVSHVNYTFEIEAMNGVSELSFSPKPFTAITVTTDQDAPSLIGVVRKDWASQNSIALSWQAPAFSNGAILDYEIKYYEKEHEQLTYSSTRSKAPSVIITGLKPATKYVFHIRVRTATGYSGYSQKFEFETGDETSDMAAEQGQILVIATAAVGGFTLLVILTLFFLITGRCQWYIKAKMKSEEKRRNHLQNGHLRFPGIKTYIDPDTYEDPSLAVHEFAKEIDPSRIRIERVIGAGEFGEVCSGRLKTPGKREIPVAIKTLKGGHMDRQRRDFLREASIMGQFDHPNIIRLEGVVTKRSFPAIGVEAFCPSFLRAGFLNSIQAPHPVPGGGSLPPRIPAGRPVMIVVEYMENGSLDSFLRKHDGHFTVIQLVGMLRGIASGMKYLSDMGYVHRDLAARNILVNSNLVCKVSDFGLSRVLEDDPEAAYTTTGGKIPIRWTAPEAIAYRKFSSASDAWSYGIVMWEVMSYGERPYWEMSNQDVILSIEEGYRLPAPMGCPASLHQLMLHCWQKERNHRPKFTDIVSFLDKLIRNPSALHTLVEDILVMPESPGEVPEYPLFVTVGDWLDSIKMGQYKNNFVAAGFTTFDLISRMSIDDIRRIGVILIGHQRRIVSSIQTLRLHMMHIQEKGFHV

[23] = biological target: Bromodomain testis-specific protein (Homo sapiens) (UniProt Q58F21); experiment: Selectivity interaction (Human bromodomain panel (DSF assay)) EUB0000233b BRDT

T1 sequence (Q15418 whole entry): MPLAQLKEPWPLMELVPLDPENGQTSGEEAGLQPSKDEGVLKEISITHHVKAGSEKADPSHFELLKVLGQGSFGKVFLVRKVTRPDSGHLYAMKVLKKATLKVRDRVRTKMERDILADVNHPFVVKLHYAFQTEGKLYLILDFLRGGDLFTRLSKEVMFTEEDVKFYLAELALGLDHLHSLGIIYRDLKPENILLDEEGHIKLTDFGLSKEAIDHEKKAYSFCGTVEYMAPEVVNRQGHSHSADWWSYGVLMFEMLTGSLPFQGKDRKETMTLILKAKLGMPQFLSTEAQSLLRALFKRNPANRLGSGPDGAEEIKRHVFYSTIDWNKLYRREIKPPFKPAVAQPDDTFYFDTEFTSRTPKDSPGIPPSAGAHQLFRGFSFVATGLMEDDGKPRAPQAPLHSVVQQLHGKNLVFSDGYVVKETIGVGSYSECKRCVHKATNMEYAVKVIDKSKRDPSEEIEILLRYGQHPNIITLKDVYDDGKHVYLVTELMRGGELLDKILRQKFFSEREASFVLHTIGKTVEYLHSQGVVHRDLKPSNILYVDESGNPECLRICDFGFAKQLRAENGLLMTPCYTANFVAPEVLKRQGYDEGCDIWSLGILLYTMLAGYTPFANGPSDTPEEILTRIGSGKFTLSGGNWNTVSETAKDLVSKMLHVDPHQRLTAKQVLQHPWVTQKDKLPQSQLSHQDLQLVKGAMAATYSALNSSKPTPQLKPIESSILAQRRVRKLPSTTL
Calcium/calmodulin-dependent protein kinase type II subunit beta (Homo sapiens), sequence (Q13554 whole entry): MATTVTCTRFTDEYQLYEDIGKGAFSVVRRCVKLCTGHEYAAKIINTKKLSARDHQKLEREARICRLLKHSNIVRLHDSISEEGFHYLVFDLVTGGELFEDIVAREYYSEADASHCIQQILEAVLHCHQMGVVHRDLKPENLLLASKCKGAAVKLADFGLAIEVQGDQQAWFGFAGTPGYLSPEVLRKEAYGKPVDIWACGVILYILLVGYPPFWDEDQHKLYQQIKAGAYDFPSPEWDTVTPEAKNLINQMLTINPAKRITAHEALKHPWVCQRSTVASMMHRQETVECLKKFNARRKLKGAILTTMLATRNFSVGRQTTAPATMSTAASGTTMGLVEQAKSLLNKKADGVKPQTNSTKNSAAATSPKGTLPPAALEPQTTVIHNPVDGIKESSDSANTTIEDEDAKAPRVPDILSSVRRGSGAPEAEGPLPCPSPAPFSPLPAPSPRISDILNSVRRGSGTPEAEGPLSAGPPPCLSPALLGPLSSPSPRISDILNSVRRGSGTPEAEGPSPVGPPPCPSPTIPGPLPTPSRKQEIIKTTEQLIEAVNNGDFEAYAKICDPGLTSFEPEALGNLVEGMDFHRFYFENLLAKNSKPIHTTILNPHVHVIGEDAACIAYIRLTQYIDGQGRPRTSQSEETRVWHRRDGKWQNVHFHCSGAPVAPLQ
Ephrin type-A receptor 5 (Homo sapiens), sequence (P54756 whole entry): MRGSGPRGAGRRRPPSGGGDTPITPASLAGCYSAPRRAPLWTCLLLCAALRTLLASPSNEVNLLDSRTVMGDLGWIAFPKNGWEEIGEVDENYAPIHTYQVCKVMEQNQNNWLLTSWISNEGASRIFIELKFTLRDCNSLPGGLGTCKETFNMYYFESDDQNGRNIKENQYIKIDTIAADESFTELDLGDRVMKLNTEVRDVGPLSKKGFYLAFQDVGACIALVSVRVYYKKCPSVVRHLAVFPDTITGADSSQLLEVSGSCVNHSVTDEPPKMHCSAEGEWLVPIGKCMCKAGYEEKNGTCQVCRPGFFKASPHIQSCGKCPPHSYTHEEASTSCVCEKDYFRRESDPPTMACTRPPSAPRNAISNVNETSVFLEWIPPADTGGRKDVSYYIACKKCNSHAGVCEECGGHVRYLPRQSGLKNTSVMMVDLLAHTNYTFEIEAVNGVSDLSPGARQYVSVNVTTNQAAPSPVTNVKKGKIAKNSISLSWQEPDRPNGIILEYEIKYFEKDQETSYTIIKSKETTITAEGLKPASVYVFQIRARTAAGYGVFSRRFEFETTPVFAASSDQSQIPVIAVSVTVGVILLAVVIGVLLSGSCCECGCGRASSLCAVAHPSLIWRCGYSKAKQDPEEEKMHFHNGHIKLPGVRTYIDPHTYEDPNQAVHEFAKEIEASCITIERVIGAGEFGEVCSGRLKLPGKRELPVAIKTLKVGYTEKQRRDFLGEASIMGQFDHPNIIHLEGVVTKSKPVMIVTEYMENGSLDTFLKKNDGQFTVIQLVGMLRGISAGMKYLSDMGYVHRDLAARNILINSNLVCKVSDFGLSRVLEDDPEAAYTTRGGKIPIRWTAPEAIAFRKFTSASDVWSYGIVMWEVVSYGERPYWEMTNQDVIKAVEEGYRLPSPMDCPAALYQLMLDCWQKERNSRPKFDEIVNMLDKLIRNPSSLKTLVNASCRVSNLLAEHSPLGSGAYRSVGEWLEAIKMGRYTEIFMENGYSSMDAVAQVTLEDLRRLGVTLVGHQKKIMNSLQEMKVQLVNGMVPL
Calcium/calmodulin-dependent protein kinase type 1D (Homo sapiens), sequence (Q8IU85 whole entry, looked up): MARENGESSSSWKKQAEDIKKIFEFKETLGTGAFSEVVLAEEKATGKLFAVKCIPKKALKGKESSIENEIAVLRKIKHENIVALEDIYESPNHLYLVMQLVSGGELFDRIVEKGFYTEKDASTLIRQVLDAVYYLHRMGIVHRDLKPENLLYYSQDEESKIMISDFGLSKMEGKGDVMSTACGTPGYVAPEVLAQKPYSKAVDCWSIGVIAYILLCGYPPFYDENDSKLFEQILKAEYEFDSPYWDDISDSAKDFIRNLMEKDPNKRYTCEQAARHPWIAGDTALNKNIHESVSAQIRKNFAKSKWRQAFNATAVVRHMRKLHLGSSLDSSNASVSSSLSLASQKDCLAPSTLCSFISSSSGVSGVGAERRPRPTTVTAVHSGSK
Wee1-like protein kinase (Homo sapiens), sequence (P30291 whole entry, looked up): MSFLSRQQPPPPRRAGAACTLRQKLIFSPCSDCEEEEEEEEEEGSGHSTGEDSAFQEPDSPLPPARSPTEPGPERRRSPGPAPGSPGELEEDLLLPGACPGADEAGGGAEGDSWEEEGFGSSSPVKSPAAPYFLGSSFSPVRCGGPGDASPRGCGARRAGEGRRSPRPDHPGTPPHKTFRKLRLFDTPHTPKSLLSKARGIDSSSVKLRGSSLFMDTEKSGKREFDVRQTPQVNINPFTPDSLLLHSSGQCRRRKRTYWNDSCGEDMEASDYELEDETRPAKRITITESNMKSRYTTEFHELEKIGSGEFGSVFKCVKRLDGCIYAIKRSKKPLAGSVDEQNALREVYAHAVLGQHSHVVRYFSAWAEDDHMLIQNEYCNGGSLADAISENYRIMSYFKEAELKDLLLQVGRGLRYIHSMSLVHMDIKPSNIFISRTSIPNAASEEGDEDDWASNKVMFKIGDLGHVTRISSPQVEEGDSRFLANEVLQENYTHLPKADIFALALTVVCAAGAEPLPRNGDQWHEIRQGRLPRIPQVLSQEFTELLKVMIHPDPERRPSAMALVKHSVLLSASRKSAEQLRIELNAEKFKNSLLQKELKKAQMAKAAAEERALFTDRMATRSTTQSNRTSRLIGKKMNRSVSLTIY
Cyclin-dependent kinase 7, sequence (P50613 whole entry): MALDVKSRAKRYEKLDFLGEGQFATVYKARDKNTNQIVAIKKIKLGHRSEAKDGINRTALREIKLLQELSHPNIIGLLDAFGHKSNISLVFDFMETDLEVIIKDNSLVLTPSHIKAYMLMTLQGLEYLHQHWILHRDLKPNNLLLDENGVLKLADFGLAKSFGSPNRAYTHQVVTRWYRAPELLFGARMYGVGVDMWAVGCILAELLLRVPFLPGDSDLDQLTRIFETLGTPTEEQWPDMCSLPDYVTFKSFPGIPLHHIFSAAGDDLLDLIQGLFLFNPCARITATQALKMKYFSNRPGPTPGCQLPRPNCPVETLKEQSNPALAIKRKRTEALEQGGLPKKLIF
Serine/threonine-protein kinase PAK 4, sequence (O96013 whole entry, looked up): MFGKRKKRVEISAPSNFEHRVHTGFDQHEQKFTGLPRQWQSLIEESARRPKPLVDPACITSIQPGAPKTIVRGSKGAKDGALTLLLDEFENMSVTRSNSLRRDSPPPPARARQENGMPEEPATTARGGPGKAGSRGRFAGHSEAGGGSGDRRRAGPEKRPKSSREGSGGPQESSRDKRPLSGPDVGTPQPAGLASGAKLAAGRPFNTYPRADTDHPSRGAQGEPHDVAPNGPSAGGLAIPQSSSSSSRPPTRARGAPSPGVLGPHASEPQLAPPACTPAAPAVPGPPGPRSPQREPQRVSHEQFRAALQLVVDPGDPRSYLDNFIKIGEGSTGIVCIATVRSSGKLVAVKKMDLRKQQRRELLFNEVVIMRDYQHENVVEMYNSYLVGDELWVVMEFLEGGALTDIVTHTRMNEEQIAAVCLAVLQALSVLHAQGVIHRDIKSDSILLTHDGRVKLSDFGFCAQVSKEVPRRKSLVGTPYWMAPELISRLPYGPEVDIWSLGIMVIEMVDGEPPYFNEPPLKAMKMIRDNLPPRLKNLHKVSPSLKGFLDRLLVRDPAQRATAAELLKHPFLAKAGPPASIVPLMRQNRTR
Calcium/calmodulin-dependent protein kinase type II subunit alpha, sequence (Q9UQM7 whole entry): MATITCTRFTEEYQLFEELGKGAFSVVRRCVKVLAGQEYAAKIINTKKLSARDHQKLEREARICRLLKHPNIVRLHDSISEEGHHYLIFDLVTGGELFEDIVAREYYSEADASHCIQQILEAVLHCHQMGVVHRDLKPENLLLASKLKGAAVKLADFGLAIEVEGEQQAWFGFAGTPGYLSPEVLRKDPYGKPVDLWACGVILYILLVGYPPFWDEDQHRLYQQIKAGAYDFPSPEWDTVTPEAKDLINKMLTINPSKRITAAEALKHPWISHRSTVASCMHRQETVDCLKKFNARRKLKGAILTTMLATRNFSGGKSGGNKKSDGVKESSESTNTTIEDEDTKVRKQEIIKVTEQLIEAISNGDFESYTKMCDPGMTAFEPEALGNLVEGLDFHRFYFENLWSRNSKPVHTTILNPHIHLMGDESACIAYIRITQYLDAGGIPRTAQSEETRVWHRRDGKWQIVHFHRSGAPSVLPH

- % of control [1]: 100%
SMILES: CCN(CC)CCCCNc1ncc2cc(-c3cc(OC)cc(OC)c3)c(NC(=O)NC(C)(C)C)nc2n1

- dTM [2]: 0.4 K
SMILES: CN(C(=O)c1cnn2cccnc12)c1cc2c(cc1N1CCOCC1)C(=O)N(C[C@@H](F)C(C)(C)O)C2

SMILES: Nc1cnc(N2CCc3cc(S(=O)(=O)Nc4c(F)cc(Cl)cc4F)cc(N4CCCC4=O)c32)nc1 [TP-020n]
- % of control [3]: 100%

SMILES: O[C@H]1CC[C@H](Nc2ncc3nc(Nc4c(F)cc(F)cc4F)n([C@H]4CCOC4)c3n2)CC1
- % of control [4]: 100%
- % of control [5]: 100%

SMILES: CNC(=O)Nc1ccc(-c2nc(N3CC4CCC(C3)O4)c3cnn(C4CCC5(CC4)OCCO5)c3n2)cc1
- % of control [6]: 100%

SMILES: COCC(=O)NC/C=C/c1ccc2ncnc(Nc3ccc(Oc4ccc(C)nc4)c(C)c3)c2c1 [CP-724714]
- % of control [7]: 54%
- % of control [8]: 17%
- % of control [9]: 88%
- % of control [10]: 89%
- % of control [11]: 100%
- % of control [12]: 100%

SMILES: C=CC(=O)Nc1ccc(C(=O)Nc2[nH]nc3c2CN(C(=O)N[C@H](CN(C)C)c2ccccc2)C3(C)C)cc1
- % of engagement [13]: 24.5%
- % of engagement [14]: 93.3%

SMILES: Cc1cc([C@@H](C)Nc2ccccc2C(=O)O)c2nc(N3CCOCC3)cc(=O)n2c1 [AZD-6482]
- % of control [15]: 84%

- % of inhibition [16]: 21.3%
- % of inhibition [17]: 4.2%
- % of inhibition [18]: 11.7%
- % of inhibition [19]: -5.9%
SMILES: CC[C@@H]1[C@H](F)C(=O)N[C@@H]1COc1nccc2cc(C(N)=O)c(OC)cc12 [ZIMLOVISERTIB]

SMILES: COc1cc(N(C)c2ccnc3ccc(C(F)(F)F)cc23)cc(OC)c1OC
- % binding [20]: 85%

- % of control ([21]; at 1 µM): 97%
- % of control ([21]; at 5 µM): 79%
SMILES: C=CC(=O)Nc1cccc(C(=O)Nc2ccc(Nc3cc(-c4[nH]c(SC)nc4C)ccn3)cc2)c1

SMILES: COc1cc(Nc2nc(C)cc(-c3cnn4nc(OC)ccc34)n2)cc(C(F)(F)F)c1
- % of control [22]: 95%

- dTM [23]: < 2 K
SMILES: CN(C)CCCOc1ccc(-c2cc(NCCCn3cccn3)nc(S(C)(=O)=O)n2)cc1
